Test results published in US20070261453A1, “Plant Nutrient Based on O,P-Ethylene(Bis)Hydroxyphenyl Glycines” (priority 2004, published 2007).

Tested on: Soybean (cv.Oshumi) plants
Assay: Soybean iron chlorosis experiment in aerated nutrient solution with Fe chelate treatments (plant weight, iron content, SPAD index)
Format: in vivo
Conditions: for Iron content in parts of the plants: leaf / Iron content in parts of the plants: per number of leaves / Iron content in parts of the plants: root: dry digestion and atomic absorption, sampled after 14 days; for Iron content in parts of the plants: leaf / Iron content in parts of the plants: per number of leaves / Iron content in parts of the plants: root / Dry leaf weight / Dry root weight / Fresh leaf weight / Fresh plant weight / Fresh root weight: mean of 4 replicates; for Dry leaf weight / Dry root weight / Fresh leaf weight / Fresh plant weight / Fresh root weight: iron-chlorotic soybean plants, sampled 14 days after start of Fe treatment; for Spad index (second leaf): Minolta SPAD 502, means of 4 replicates
Experimental: Soybean (cv.Oshumi) plants have been used in the biological experiment. Plants were obtained from soybean seeds that were germinated in standard seed growing procedure in closed sterilized trays. The seeds were placed in the trays on a cellulose paper soaked with 50 milliliters of distilled water and with another paper placed over them. 30 ml distilled water and 20 ml CaSO4 1 mM were added. The trays were placed in a thermostatized stove, without light, at […] for 3 days. After this time the seedlings of similar development were placed on a holed plate floating over containers full of diluted nutrient solution and EDTA for 7 days. Nutrient solutions (without iron) were a mixture of: macronutrients: 1 mM Ca(NO3)2·4H2O, 0.9 mM KNO3, 0.3 mM MgSO4, 0.1 mM KH2PO4; cationic micronutrients: 2.5 μM MnSO4, 1 μM CuSO4, 10 μM ZnSO4, 1 μM NiCl2, 1 μM CoSO4, 115.5 μM EDTANa2 (100 μM in excess to buffer micronutrients activities), 231 μM KOH; anionic micronutrients: 35 μM NaCl, 10 μM H3BO3, 0.05 μM Na2MoO4. The pH was buffered at 7.5 with 0.1 mM HEPES (N-2-Hydroxyethylpiperazine-N′-2-ethanesulfonic acid), 0.05mM KOH and 2 g of CaCO3 per pot. Later, plants were subjected to a stressing procedure that consisted in putting them in five pails that contained 10 | each one of nutrient solution without iron chelate. […] After 6 days, the stems of two plants were wrapped together with foam and placed in 2 | polyethylene vessels (3 holes per lid, 2 plants per pot). The pots were completely covered with black plastic to avoid the incidence of the light. The vessels contained 2 | of continuously aerated nutrient solution containing the Fe treatments. Nutrient solution consisted of macronutrients and anionic micronutrients as before and cationic micronutrients: MnSO4 (1 μM), CuSO4 (0.5 μM), ZnSO4 (0.5 μM), NiCl2 (0.1 μM) and CoSO4 (0.1 μM). Water was added every two days and the solution was renewed every week. Plants were sampled 14 days after. Roots and leaves were separated and washed first with Tween® 80 (polyoxyethylene sorbitan monooleate) in 0.1 M HCl for 30 seconds, and then with abundant distilled water, after that they were weighted and dried. Micronutrientes were determined in leaves and in roots after dry digestion procedure and atomic absorption. During the experiment SPAD readings were frequently taken using the Minolta SPAD 502 chlorophyll meter, for all the leaves.
Seven different treatments were applied: • Comparative Example 1: No iron added. • Comparative Example 2: Fe-o,o-EDDHA 5 μM • Comparative Example 3: Fe-o,o-EDDHA 5 μM+Fe-o,p-EDDHA 1 μM. • Comparative Example 4: Fe-o,o-EDDHA 5 μM+Fe-o,p-EDDHA 2.5 μM. • Comparative Example 5: Fe-o,o-EDDHA 10 μM • Example 1: Fe-o,p-EDDHA 5 μM. • Example 2: Fe-o,o-EDDHA 5 μM+Fe-o,p-EDDHA 5 μM.
Four replications were prepared for each treatment.

[1] = listed as Comparative Example 2

SMILES | Iron content in parts of the plants: leaf | Iron content in parts of the plants: per number of leaves | Iron content in parts of the plants: root | Dry leaf weight | Dry root weight | Fresh leaf weight | Fresh plant weight | Fresh root weight | Spad index (second leaf) (time 0 days) | Spad index (second leaf) (time 2 days) | Spad index (second leaf) (time 4 days) | Spad index (second leaf) (time 7 days) | Spad index (second leaf) (time 9 days) | Spad index (second leaf) (time 11 days) | further results
O=C([O-])C(NCCNC(C(=O)[O-])c1ccccc1[O-])c1ccccc1[O-].[Fe+3] (single isomer, unassigned) [Comp. Example 5, Fe-o,o-EDDHA] | 74.87 μg Fe/g dry leave | 55.15 μg Fe/number of leaves | 77.22 μg Fe/g dry root | 0.781 g | 0.425 g | 4.736 g | 15.862 g | 7.316 g | 16.6 | 15.7 | 15.0 | 18.2 | 19.7 | 19.0 | –
O=C([O-])C(NCCNC(C(=O)[O-])c1ccccc1[O-])c1ccccc1[O-].[Fe+3] (single isomer, unassigned) [Comp. Example 2, Fe-o,o-EDDHA] | – | – | – | 0.321 g | 0.282 g | 1.257 g | 6.781 g | 3.818 g | – | – | – | – | – | – | Iron content in parts of the plants: leaf [1]: 62.30 μg Fe/g dry leave; Iron content in parts of the plants: per number of leaves [1]: 19.82 μg Fe/number of leaves; Iron content in parts of the plants: root [1]: 90.32 μg Fe/g dry root; Spad index (second leaf) (time 0 days, listed as C2): 12.7; Spad index (second leaf) (time 2 days, listed as C2): 10.1; Spad index (second leaf) (time 4 days, listed as C2): 9.1; Spad index (second leaf) (time 7 days, listed as C2): 9.5; Spad index (second leaf) (time 9 days, listed as C2): 9.2; Spad index (second leaf) (time 11 days, listed as C2): 8.2
O=C([O-])C(NCCNC(C(=O)[O-])c1ccccc1[O-])c1ccc(O)cc1.[Fe+3] (stereo not drawn) [Example 1, Fe-o,p-EDDHA] | 80.98 μg Fe/g dry leave | 91.91 μg Fe/number of leaves | 128.48 μg Fe/g dry root | 1.136 g | 0.595 g | 6.282 g | 21.186 g | 8.933 g | 14.7 | 14.0 | 18.0 | 21.4 | 13.9 | 24.9 | Course of SPAD values compared with Comparative Examples (in words) (Example 1 vs Comparative Examples 1 to 3, Example 2 vs Comparative Examples 4 and 5): raise considerably steeper; Weight of the plants compared with Comparative Examples (in words) (Example 1 vs Comparative Examples 1 to 3, Example 2 vs Comparative Examples 4 and 5, Table 3): considerable raise of weight of the plants; Iron content in parts of the plants compared with Comparative Examples (in words) (Example 1 vs Comparative Examples 1 to 3, Example 2 vs Comparative Examples 4 and 5, Table 4): increase in the iron content
